From ChEMBL document CHEMBL3792289, “Design, synthesis and biological evaluation of bisabolangelone oxime derivatives as potassium-competitive acid blockers (P-CABs)” (Bioorg Med Chem Lett, 2016)

Test: Inhibition of gastric H+/K+-ATPase in Kunming mouse stomach parietal cells
Type: tissue-based

IC50 [µM]	SMILES
23.2	CC(C)C/C=C1\O[C@H]2C[C@@H](C)CC(=O)[C@H]2[C@@]1(C)O

Test: Inhibition of pig gastric H+/K+-ATPase in stomach ion leaky membrane vesicle assessed as reduction in monophosphate production after 30 mins by microplate reader analysis in presence of valinomycin
Type: cell membranes, Sus scrofa

SMILES	pIC50	IC50 [µM]
CC(C)C/C=C1\O[C@H]2C[C@@H](C)C/C(=N\OCc3ccccc3)[C@H]2[C@@]1(C)O	6.25	
CC(C)C/C=C1\O[C@H]2C[C@@H](C)C/C(=N\OC(=O)Nc3ccccc3)[C@H]2[C@@]1(C)O	6	
CC(C)CCC1O[C@H]2C[C@@H](C)C/C(=N\O)[C@H]2[C@@]1(C)O (some centres undefined)	5.3	
Cc1nc(Nc2ccc(F)cc2)nc(N2CCc3ccccc3C2C)c1C (centres undefined) [REVAPRAZAN]		0.95

More lines, now with the values ahead:

pIC50	IC50 [µM]	SMILES
5.54		CC(C)C/C=C1\O[C@H]2C[C@@H](C)C/C(=N\O)[C@H]2[C@@]1(C)O
6.07		CCOC(=O)CO/N=C1\C[C@H](C)C[C@@H]2O/C(=C\CC(C)C)[C@](C)(O)[C@H]12
6.36		C#CCO/N=C1\C[C@H](C)C[C@@H]2O/C(=C\CC(C)C)[C@](C)(O)[C@H]12
5.94		CCCCO/N=C1\C[C@H](C)C[C@@H]2O/C(=C\CC(C)C)[C@](C)(O)[C@H]12
